Structures can show the parent of a compound that is named as a salt. Activity calls are given as the source filed them.
Key:
Streptococcus = assay: Group A Streptococcus viability loss, dose response, counter-screen for streptokinase expression inhibitor project, luminescence, BacTiterGlo (AID 1915); type: functional, organism-based;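 further: potency for reduction of bacterial viability or growth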
[1] = cytotoxicity toward NIH3T3 fibroblasts, dose response, counter-screen, cell-based, ATP luminescence, mouse fibroblasts (AID 2010); type: functional;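 further: cells exposed to compound for about 90 hours before reading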
[2] = target: T1, Replicative DNA helicase DnaB (Mycobacterium tuberculosis, UniProt P9WMR3); assay: DnaB intein splicing inhibitors, dose response, biochemical, cell-free fluorescence (AID 449749); type: functional
T1 sequence (P9WMR3 whole entry): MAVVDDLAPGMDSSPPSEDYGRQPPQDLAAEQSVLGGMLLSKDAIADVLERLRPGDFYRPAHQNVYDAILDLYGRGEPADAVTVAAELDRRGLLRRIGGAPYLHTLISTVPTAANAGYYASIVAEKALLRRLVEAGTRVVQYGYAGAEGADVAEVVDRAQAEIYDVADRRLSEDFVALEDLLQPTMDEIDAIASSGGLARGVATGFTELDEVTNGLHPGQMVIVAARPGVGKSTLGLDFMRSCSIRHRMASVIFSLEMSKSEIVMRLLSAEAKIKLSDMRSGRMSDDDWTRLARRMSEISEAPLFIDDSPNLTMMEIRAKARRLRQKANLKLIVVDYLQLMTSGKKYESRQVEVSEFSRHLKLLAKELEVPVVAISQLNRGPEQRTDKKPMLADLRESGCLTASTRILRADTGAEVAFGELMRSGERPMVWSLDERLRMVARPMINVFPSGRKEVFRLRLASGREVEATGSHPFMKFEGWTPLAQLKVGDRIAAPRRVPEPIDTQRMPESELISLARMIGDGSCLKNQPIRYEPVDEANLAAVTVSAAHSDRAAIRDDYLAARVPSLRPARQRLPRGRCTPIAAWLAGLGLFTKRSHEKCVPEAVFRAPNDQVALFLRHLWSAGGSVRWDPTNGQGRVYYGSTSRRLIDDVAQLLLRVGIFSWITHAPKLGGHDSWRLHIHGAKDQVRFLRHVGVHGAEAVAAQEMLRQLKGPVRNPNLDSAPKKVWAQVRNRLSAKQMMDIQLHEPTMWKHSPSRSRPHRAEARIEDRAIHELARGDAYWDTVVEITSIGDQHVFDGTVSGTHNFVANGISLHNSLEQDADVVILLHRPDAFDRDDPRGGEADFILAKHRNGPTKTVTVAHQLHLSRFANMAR

[3] = target: T2, Apoptotic protease-activating factor 1 (Homo sapiens, UniProt O14727); type: functional
T2 sequence (O14727 whole entry): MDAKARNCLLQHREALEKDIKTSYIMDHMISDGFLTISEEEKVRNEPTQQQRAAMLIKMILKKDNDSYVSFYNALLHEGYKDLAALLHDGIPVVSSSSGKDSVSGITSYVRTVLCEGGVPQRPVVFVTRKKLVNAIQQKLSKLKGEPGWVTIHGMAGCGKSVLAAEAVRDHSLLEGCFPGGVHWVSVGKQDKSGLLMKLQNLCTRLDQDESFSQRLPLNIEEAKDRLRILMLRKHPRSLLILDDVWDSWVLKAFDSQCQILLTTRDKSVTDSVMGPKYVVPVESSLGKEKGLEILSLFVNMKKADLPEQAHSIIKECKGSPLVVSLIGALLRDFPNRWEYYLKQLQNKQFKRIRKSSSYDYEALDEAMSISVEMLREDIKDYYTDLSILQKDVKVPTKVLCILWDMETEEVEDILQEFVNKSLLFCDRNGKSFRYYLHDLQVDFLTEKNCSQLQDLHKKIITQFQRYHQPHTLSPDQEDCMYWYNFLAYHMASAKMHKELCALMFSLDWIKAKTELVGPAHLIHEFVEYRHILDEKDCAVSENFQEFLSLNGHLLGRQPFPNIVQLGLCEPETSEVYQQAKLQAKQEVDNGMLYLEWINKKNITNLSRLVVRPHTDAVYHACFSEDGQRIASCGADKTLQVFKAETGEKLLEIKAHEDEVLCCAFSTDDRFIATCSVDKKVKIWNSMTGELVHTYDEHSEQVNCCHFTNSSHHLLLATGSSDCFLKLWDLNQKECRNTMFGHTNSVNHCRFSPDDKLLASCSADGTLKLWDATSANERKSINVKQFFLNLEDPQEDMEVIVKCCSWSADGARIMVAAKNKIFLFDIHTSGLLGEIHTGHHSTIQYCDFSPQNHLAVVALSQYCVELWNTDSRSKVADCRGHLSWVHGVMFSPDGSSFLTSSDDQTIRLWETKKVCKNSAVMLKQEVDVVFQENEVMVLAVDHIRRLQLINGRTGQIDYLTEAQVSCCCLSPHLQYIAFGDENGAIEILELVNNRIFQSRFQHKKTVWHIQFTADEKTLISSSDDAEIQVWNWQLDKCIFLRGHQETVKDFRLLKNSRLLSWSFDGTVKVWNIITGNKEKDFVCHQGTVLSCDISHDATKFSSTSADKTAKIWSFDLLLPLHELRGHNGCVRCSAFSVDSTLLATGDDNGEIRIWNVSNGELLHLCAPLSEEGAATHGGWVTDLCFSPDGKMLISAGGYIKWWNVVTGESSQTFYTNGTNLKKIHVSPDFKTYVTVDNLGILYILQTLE

[4] = inhibitors of SNCA 5'UTR-driven reporter translation, confirmation, H4 neuroglioma cells, luminescence (AID 1988); type: functional, cell-based
[5] = inhibitors of intracellular T. cruzi replication, confirmation, NIH3T3 host cells, beta-gal luminescence (AID 2044); type: functional, cell-based;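 further: intracellular parasites grown in NIH/3T3 mouse fibroblasts as host cells; luminescent beta-galactosidase reporter signal from transgenic T. cruzi replicating inside host cells; inhibitors lower the luminescence signal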
[6] = Artemis endonuclease inhibitor potency, dose response, biochemical, fluorescence intensity (AID 720701); type: functional;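 further: Artemis endonuclease enzyme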
[7] = Luminescence Cell-Based Dose Response HTS to Identify Inhibitors of 5'UTR Stem-Loop Driven Prion Protein mRNA Translation in H4 Neuroglioblastoma Cells. [Related pubchem assays: 1827 (Project Summary), 1813 (Primary HTS)]; type: functional
[8] = inhibitors of firefly luciferase expression or activity, dose response, H4 neuroglioma cells, luminescence (AID 1990); type: functional, cell-based
Protein RecA = target: T3, Protein RecA (Mycobacterium tuberculosis, UniProt P9WHJ3); assay: Fluorescence Cell-Free Homogeneous Dose Retest to Identify Inhibitors of RecA-Intein Splicing Activity. [Related pubchem assays (depositor defined):AID2097, AID2223, AID489010, AID492950]; type: functional
T3 sequence (P9WHJ3 whole entry): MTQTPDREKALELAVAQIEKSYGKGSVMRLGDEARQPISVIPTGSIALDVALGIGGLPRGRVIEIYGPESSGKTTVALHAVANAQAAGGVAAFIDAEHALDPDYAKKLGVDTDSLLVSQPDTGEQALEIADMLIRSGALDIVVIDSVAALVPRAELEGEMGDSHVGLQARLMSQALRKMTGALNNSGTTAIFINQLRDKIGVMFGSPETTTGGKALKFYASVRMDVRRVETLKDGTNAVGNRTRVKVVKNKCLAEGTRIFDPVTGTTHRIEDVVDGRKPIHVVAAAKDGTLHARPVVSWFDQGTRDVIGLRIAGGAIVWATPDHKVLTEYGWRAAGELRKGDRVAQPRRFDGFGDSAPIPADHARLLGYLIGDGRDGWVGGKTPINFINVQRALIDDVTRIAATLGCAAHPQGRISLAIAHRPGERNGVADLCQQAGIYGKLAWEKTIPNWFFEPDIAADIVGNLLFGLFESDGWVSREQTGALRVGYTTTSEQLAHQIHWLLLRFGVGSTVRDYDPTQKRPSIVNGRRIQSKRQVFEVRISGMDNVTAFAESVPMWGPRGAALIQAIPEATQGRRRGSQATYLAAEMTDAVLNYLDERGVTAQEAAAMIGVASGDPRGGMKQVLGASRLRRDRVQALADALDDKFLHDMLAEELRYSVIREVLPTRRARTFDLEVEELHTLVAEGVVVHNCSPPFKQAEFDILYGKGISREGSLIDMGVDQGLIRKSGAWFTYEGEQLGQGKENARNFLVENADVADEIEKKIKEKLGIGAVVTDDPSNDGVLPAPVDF

[9] = tested on: Streptococcus sp. 'group A'; assay: growth inhibition of control SK(-) GAS strain, dose response, counter-screen for streptokinase expression inhibitor project, luminescence, kanamycin, BacTiterGlo, confirmation (AID 1900); type: functional, organism-based
[10] = target: NAD-dependent protein deacylase sirtuin-5, mitochondrial (Homo sapiens, UniProt Q9NXA8); assay: SIRT5 desuccinylase inhibitors, dose response, biochemical, fluorescence imaging, cherry-pick, set 5 (AID 720591);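 further: desuccinylation of succinyl peptide AMC substrate read as fluorescence after trypsin release; potency of inhibitors that lower fluorescence and may act on trypsin instead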
Sequence of NAD-dependent protein deacylase sirtuin-5, mitochondrial (Q9NXA8 whole entry): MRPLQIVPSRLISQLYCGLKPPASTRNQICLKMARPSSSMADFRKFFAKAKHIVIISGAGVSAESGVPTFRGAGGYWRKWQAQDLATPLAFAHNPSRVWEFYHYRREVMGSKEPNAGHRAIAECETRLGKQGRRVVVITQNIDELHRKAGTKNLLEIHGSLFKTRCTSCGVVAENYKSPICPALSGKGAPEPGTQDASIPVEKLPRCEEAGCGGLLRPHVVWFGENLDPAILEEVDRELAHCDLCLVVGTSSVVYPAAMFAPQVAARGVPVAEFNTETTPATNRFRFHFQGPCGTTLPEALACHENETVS

[11] = half-maximal inhibitory concentration for glucagon-like peptide-1 release, STC-1 cell line, dose-response (AID 1117345); type: functional, cell-based
[12] = Dose-response inhibition of insulin secretion in a rat insulinoma line at 5 mM glucose (AID 1117331); type: functional, cell-based; details: INS-1E
[13] = Glucagon-like peptide 1 release potency, NCI-H716 cell line, dose-response, half-maximal inhibitory concentration (AID 1117344); type: functional, cell-based
[14] = Late-stage results from the probe development effort to identify antagonists of arginine vasopressin receptor 1a (AVPR1a): fluorescence-based cell-based dose response AVPR1a inhibition assay.; type: functional
Vasopressin V2 receptor = Vasopressin V2 receptor (Homo sapiens, UniProt P30518); assay: Late-stage results from the probe development effort to identify antagonists of arginine vasopressin receptor 1a (AVPR1a): fluorescence-based cell-based dose response AVPR2 inhibition counterscreen assay.; type: functional
Sequence of Vasopressin V2 receptor (P30518 whole entry): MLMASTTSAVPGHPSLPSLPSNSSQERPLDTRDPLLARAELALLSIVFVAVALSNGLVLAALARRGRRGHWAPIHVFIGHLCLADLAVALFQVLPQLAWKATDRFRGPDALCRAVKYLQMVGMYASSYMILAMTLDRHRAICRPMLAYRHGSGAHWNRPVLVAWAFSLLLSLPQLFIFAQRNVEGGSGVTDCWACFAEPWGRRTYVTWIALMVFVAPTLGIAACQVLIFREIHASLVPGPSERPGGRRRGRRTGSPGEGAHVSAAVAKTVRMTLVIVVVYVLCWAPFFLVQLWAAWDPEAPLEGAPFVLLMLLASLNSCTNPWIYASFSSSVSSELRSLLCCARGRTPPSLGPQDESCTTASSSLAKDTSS

[15] = Late-stage results from the probe development effort to identify antagonists of arginine vasopressin receptor 1a (AVPR1a): fluorescence-based cell-based dose response OXTR inhibition counterscreen assay.; type: functional
Vasopressin V1b receptor = Vasopressin V1b receptor (Homo sapiens, UniProt P47901); assay: Late-stage results from the probe development effort to identify antagonists of arginine vasopressin receptor 1a (AVPR1a): fluorescence-based cell-based dose response AVPR1b inhibition counterscreen assay.; type: functional
Sequence of Vasopressin V1b receptor (P47901 whole entry): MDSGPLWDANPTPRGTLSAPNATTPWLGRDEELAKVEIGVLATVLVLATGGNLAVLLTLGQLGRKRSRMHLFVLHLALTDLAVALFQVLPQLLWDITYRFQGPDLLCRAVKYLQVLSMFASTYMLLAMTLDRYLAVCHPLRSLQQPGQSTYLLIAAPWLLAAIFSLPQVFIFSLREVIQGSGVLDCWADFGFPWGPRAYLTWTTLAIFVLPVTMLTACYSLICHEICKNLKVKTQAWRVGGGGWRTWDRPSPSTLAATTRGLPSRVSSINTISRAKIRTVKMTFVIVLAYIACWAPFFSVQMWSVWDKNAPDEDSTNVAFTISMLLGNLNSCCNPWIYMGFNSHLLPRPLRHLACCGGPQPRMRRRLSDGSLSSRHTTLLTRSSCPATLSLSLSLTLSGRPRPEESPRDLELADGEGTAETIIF

[16] = fibronectin fibrillogenesis inhibitors in fibroblasts, dose response, AH1F cells, Alexa488-fibronectin fluorescence, cherry-pick, set 2 (AID 1117283); type: functional, cell-based
[17] = target: G-protein coupled receptor 183 (Homo sapiens, UniProt P32249); assay: SAR confirmation of small molecule antagonists of the EBI2 receptor via a luminescent beta-arrestin assa.; type: functional
Sequence of G-protein coupled receptor 183 (P32249 whole entry): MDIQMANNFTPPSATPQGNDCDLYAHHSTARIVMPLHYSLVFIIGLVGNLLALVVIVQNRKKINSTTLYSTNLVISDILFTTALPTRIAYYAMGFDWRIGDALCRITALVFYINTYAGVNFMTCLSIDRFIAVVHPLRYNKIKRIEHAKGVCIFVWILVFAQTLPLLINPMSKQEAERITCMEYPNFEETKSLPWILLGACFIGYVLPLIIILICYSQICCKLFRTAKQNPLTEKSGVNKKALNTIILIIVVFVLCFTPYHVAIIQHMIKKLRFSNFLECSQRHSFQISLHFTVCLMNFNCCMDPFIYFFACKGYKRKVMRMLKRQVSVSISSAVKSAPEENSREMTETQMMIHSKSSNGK

[18] = SNU-C1 cell viability reduction, dose response, CellTiter-Glo luminescence (AID 1117323); type: functional, cell-based
[19] = CellTiter-Glo luminescent dose response of DLD-1 viability loss (AID 1117352); type: functional
[20] = Concentration-dependent survival of SW480 colon cancer line, luminescence detection with CellTiter-Glo, half-maximal inhibitory concentration (AID 1117338); type: functional
[21] = cytotoxicity toward HCT116 cells – cell-based, CellTiter-Glo luminescence, IC50, dose response (AID 1117332); type: functional; details: HCT-116
[22] = cytotoxicity toward HT-29 cells – cell-based, CellTiter-Glo luminescence, IC50, dose response (AID 1117330); type: functional
[23] = HCT116 cell viability decrease, GSK3B pretreatment – CellTiter-Glo, IC50, dose response (AID 1117339); type: functional; details: HCT-116
[24] = cytotoxicity toward Colo320 cells – cell-based, CellTiter-Glo luminescence, IC50, dose response (AID 1117334); type: functional; details: COLO 320
[25] = RKO cell viability reduction, dose response, CellTiter-Glo luminescence (AID 1117322); type: functional

O=C1c2ccccc2C(=O)c2c1oc(C(F)(F)F)c2C(=O)c1ccccc1
EC50 (Streptococcus): 2.41 µM (active) | EC50 [1]: > 60 µM (not active) | AC50 [2]: > 380 µM (inconclusive) | IC50 [3]: 4.72 µM (active) | EC50 [4]: 3.37 µM (active) | EC50 [5]: 1.76 µM (active) | IC50 [6]: > 20 µM (inactive) | EC50 [7]: 7.26 µM (active) | EC50 [8]: 6.73 µM (active) | EC50 (Protein RecA): 15.3 µM (active) | EC50 [9]: 2.11 µM (active)

COc1ccc(OCC(=O)Nc2ccc(C(=O)Nc3ccccc3C(=O)O)cc2)cc1
AC50 [10]: > 30 µM (inactive)

Cc1cc(O)c2c(O)c3c(O)cccc3cc2c1
IC50 [11]: 11.3 µM (inactive) | IC50 [12]: > 33.3 µM (inactive) | IC50 [13]: > 20 µM (inactive)

Cc1ccccc1N1CCN(C(=O)N(CC2CC2)c2ccccc2)CC1
IC50 [14]: 0.019 µM (active) | IC50 (Vasopressin V2 receptor): 4.89 µM (active) | IC50 [15]: 4.9 µM (active) | IC50 (Vasopressin V1b receptor): 22 µM (inactive)

CCN(C(=O)N1CCN(c2ccccc2C)CC1)c1ccc(OC)cc1
IC50 [14]: 0.062 µM (active) | IC50 (Vasopressin V2 receptor): 6 µM (active) | IC50 [15]: 0.5 µM (active) | IC50 (Vasopressin V1b receptor): 8.81 µM (active)

C[C@H](O)C#Cc1ccc2c(c1)O[C@H](CN(C)C)[C@@H](C)CN([C@@H](C)CO)S2(=O)=O
AC50 [16]: > 70 µM (inactive)

C[C@@H]1CN([C@H](C)CO)C(=O)c2cc(-c3ccccc3)cnc2O[C@@H]1CN(C)C(=O)c1cccc(F)c1
AC50 [16]: > 70 µM (inactive)

CCC(C)N1CCN(C(=O)/C=C/c2ccc(Br)cc2)CC1 (centres undefined)
IC50 [17]: 0.00223 µM (active)

O=C(c1ccc(Br)cc1)N1CCN(Cc2ccc(Cl)cc2)CC1
IC50 [17]: 0.478 µM (active)

CCN(CC)CCOC(=O)C(C)(c1ccccc1)c1ccccc1 [APROFENE]
IC50 [12]: > 11.1 µM (inactive)

COCC(=O)O[C@]1(CCN(C)CCCc2nc3ccccc3[nH]2)CCc2cc(F)ccc2[C@@H]1C(C)C [MIBEFRADIL DIHYDROCHLORIDE]
IC50 [18]: 5.44 µM (inactive) | IC50 [19]: 7.26 µM (inactive) | IC50 [20]: 4.54 µM (active) | IC50 [21]: 12.4 µM (inactive) | IC50 [11]: 8.24 µM (inactive) | IC50 [22]: 3.08 µM (active) | IC50 [23]: 5.33 µM (inactive) | IC50 [13]: > 40 µM (inactive) | IC50 [24]: 10.5 µM (inactive) | IC50 [25]: 6.72 µM (inactive)

CNCCC(Oc1ccccc1OC)c1ccccc1 (centres undefined) [NISOXETINE HYDROCHLORIDE]
AC50 [10]: > 30 µM (inactive)
